The text below walks through data of patent US20120165331A1, “Di/tri-aza-spiro-C9-C11alkanes” (priority 2010, published 2012).

The term Kd denotes the constant that tells how readily two partners part at equilibrium. The Ki is the equilibrium dissociation constant of an inhibitor or competing ligand from its target.

Experiment [1] concerns the target T1, human orexin 1 receptor (Homo sapiens, UniProt O43613).
T1 construct: expressed in transfected cells
T1 sequence (O43613 1-425): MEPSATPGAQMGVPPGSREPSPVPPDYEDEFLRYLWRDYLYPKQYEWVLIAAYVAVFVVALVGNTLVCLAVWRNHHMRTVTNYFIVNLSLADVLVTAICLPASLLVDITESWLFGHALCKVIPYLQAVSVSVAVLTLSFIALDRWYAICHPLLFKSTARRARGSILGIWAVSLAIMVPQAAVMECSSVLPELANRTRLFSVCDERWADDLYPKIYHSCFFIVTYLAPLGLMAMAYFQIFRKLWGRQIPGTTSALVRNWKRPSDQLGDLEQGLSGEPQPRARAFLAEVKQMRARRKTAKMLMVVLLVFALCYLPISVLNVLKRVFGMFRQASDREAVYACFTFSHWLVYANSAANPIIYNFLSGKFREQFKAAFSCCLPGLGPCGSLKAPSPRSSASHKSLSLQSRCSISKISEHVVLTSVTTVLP
The experiment in a line: Radioligand binding assay ([125I]orexin A competition), human orexin 1 receptor. As to conditions: radioligand [125I]orexin A instead of [3H]-SB649868; read-out: Binding hOx1R Kd.

The target of experiment [2] is T2, human orexin 2 receptor (Homo sapiens, UniProt O43614).
T2 construct: expressed in transfected cells
T2 sequence (O43614 1-444): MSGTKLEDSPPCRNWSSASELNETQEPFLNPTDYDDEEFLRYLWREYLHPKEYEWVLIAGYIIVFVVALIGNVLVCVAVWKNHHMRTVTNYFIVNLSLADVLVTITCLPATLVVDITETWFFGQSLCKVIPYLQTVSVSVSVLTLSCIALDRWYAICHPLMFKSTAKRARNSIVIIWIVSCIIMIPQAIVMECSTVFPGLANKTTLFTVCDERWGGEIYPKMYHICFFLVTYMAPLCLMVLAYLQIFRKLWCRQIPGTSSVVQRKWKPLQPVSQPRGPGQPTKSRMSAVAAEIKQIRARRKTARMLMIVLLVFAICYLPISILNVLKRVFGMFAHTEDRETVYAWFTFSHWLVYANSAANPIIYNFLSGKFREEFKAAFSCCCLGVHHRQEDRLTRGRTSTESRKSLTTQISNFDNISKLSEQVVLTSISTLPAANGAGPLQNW
In words: Radioligand binding assay ([125I]orexin A competition), human orexin 2 receptor. The settings on record: radioligand [125I]orexin A instead of [3H]-SB649868; read-out: Binding hOx2R Kd.

In experiment [3] the target is T1, human orexin 1 receptor. The experiment in a line: Calcium accumulation in cells (FLIPR), antagonism of orexin A, human orexin 1 receptor. The class given is cell-based. The settings on record: calcium accumulation, antagonism of orexin A, Cheng-Prusoff corrected; read-out: FLIPR hOx1R Ki.
Experiment [4] concerns the target T2, human orexin 2 receptor. In words: Calcium accumulation in cells (FLIPR), antagonism of orexin A, human orexin 2 receptor. Format: cell-based. The settings on record: calcium accumulation, antagonism of orexin A, Cheng-Prusoff corrected; read-out: FLIPR hOx2R Ki.
For experiment [5], the target named is T1, human orexin 1 receptor. In words: Radioligand binding assay ([3H]-SB649868 competition), human orexin 1 receptor. The settings on record: radioligand [3H]-SB649868; read-out: Binding hOx1R Kd. Summed up:
(§1)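 Membranes from CHO or HEK cells expressing the human receptor were incubated 1 h at room temperature with about 1 nM [3H]-SB649868 and test compound in HEPES pH 7.5 buffer with BSA, MgCl2, CaCl2 and tween. Non-specific binding defined with 10 μM almorexant; filtration read-out, values reported as Kd.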

Experiment [6] concerns the target T2, human orexin 2 receptor. In words: Radioligand binding assay ([3H]-SB649868 competition), human orexin 2 receptor. The settings on record: radioligand [3H]-SB649868; read-out: Binding hOx2R Kd. Summed up: as §1

As to `O=C1N(Cc2cccc3ccccc23)CCC12CCN(c1nc3ccccc3[nH]1)CC2` [Example 3.7, 8-(1H-Benzo[d]imidazol-2-yl)-2-(naphthalen-1-ylmethyl)-2,8-diazaspiro[4.5]decan-1-one], the Kd at human orexin 1 receptor [1] was above 10 µM; at human orexin 2 receptor [2] it was 1920 nM.
In the case of `O=C1N(Cc2cccc3ccccc23)CCC12CCN(c1cnc3ccccc3n1)CC2` [Example 3.11, 2-(Naphthalen-1-ylmethyl)-8-(quinoxalin-2-yl)-2,8-diazaspiro[4.5]decan-1-one], the figures for the Ki on human orexin 1 receptor [3] and on human orexin 2 receptor [4] were 1070 nM and 195 nM, respectively. In addition, the Kd was 6.36 µM at human orexin 1 receptor [1] and 414 nM at human orexin 2 receptor [2].
In the case of `O=C1N(Cc2c[nH]c3ccccc23)CCC12CCN(c1cnc3ccccc3n1)CC2` [Example 3.2, 2-((1H-Indol-3-yl)methyl)-8-(quinoxalin-2-yl)-2,8-diazaspiro[4.5]decan-1-one], the Kd was determined as 920 nM on human orexin 1 receptor [5] and 121 nM on human orexin 2 receptor [6]. Moreover, the Ki at human orexin 1 receptor [3] was found to be 1060 nM; at human orexin 2 receptor [4], 41 nM.
With `Cc1cc(C)nc(N2CCC3(CC2)NCCN(Cc2nn(C)cc2-c2cccc(Cl)c2)C3=O)n1` [Example 1.42, 4-((4-(3-Chlorophenyl)-1-methyl-1H-pyrazol-3-yl)methyl)-9-(4,6-dimethyl-pyrimidin-2-yl)-1,4,9-triazaspiro[5.5] undecan-5-one], the Kd on human orexin 1 receptor [5] worked out at 6490 nM; at human orexin 2 receptor [6], 391 nM. Further, the Ki was found to be 3280 nM on human orexin 1 receptor [3] and 83 nM on human orexin 2 receptor [4].
As for `Cc1cc(C)nc(N2CCC3(CC2)NCCN(Cc2nn(C)cc2-c2cccc(OCC4CC4)c2)C3=O)n1` [Example 1.52, 4-((4-(3-(Cyclo-propylmethoxy)phenyl)-1-methyl-1H-pyrazol-3-yl)methyl)-9-(4,6-dimethylpyrimidin-2-yl)-1,4,9-triazaspiro[5.5] undecan-5-one], the figures for the Kd at human orexin 1 receptor [5] and on human orexin 2 receptor [6] were 436 nM and 50 nM, respectively. The Ki on human orexin 1 receptor [3] was 286 nM; at human orexin 2 receptor [4], 2.8 nM.
`Cc1cc(C)nc(N2CCC3(CC2)OCCN(Cc2c[nH]c4ccccc24)C3=O)n1` [Example 2.1, 4-((1H-indol-3-yl)methyl)-9-(4,6-dimethylpyrimidin-2-yl)-1-oxa-4,9-diazaspiro[5.5]undecan-5-one]: the equilibrium dissociation constant (Kd) on human orexin 1 receptor [5] stood at 1320 nM; on human orexin 2 receptor [6] it was 31 nM. In addition, the Ki was found to be 1700 nM on human orexin 1 receptor [3] and 29 nM on human orexin 2 receptor [4].
With `Cc1cc(C)nc(N2CCC3(CC2)NCCN(Cc2nn(C)cc2-c2cccc(OC4CC4)c2)C3=O)n1` [Example 1.62, 4-((4-(3-Cyclo-propoxyphenyl)-1-methyl-1H-pyrazol-3-yl)methyl)-9-(4,6-dimethyl-pyrimidin-2-yl)-1,4,9-triazaspiro[5.5] undecan-5-one], the Kd at human orexin 1 receptor [5] turned out to be 142 nM; at human orexin 2 receptor [6], 8 nM. The Ki was found to be 163 nM at human orexin 1 receptor [3] and 1 nM on human orexin 2 receptor [4].
Take `COc1cccc(-c2oc(C)nc2CN2CCNC3(CCN(c4nc(C)cc(OC)n4)CC3)C2=O)c1` [Example 1.18, 9-(4-Methoxy-6-methylpyrimidin-2-yl)-4-((5-(3-methoxyphenyl)-2-methyloxazol-4-yl)methyl)-1,4,9-triazaspiro[5.5] undecan-5-one]: the Kd at human orexin 1 receptor [5] stood at 219 nM; on human orexin 2 receptor [6] it was 23 nM. Further, the Ki at human orexin 1 receptor [3] is 119 nM; at human orexin 2 receptor [4], 3 nM.
With `Cc1cc(C)nc(N2CCC3(CC2)NCCN(Cc2nn(C)nc2-c2cccc(OC(C)C)c2)C3=O)n1` [Example 1.79, 9-(4,6-dimethyl-pyrimidin-2-yl)-4-((5-(3-isopropoxy-phenyl)-2-methyl-2H-1,2,3-triazol-4-yl)methyl)-1,4,9-triazaspiro[5.5] undecan-5-one], the Kd on human orexin 1 receptor [5] came to 535 nM; on human orexin 2 receptor [6], 22 nM. Also, the Ki is 166 nM on human orexin 1 receptor [3] and 3.7 nM on human orexin 2 receptor [4].
